{"source": "patent US5668182A", "about": "“Method of calming or sedating an animal with a hydroxy benzaldehyde compound” (priority 1996, dated 1997)", "key": {"[1]": {"test_system": "rats", "assay": "Behavioral depression in rats after i.v. infusion (Example 1)", "assay_type": "in vivo", "conditions": "for Grip Absent (number of rats): first figure of cell; for Grip Weak (number of rats): second figure of cell", "description": "To assess behavioral depression in rats as induced by vanillin, male and female rats, five of each gender at each dose, were given doses of vanillin of 50, 100 or 200 mg/kg, respectively, or a control vehicle (0.9% sodium chloride in water) by intravenous (i.v.) infusion. Therefore, there were four groups of rats with ten rats per group tested at each dosage. The solution was infused into a tail vein through a butterfly cannula, with the infusion being performed at a constant rate over a 5-minute period using a Harvard infusion pump.\nThe evaluations were performed on days 1, 3, 5 and 9 of vanillin administration."}, "[2]": {"test_system": "mice", "assay": "Inverted screen test in mice (Example 4)", "assay_type": "in vivo", "conditions": "for ED50: Mus musculus, ip", "description": "An inverted screen test was performed on mice to investigate the effect of vanillin and vanillin analogs on muscular function. After i.p. injection of vanillin or vehicle, each mouse was placed on a wire screen (12.8 cm×12.8 cm with a 6 mm mesh size) and the screen was inverted. A positive effect was found if the drug caused the mouse to fall from the screen within 60 seconds. A negative effect was found if the mouse had the ability to climb from the underside of the screen to the top side of the screen within the 60 second time period. Hanging from the underside of the screen without falling but without climbing to the topside at 60 seconds is recorded as a one-half positive effect per the convention of Coughenour, L. L.; Mclean, J. R.; Parker, R. B., \"A New Device for the Rapid Measurement of Impaired Motor Function in Mice,\" Pharmacol. Biochem. Behav., 6: 351-353; 1977. The test was performed at 2, 5, 10, and 30 minutes following administration of vanillin or vehicle. At each of those times, an ED-50 (and 95% confidence limits) was determined for vanillin. Six mice were used in each experimental group.\nSeveral analogs of vanillin were also examined in this test. The chemical structures and chemical names for these compounds are described hereinabove.\nThe testing of these compounds was limited both by supply of compound and by solubility. Testing was performed at 2, 5, 10, 20 minutes after administration of drug or vehicle. The vehicles used to solubilize the analogs were as follows: 10% ethanol for TBJ1, TBJ2, and TBJ3; 3% ammonium hydroxide solution in saline for FSA (pH=9); 6.7% ammonium hydroxide in saline for TB17 (pH=9.3); and 20% ethanol, 1% ammonium hydroxide solution in saline for TB34 (pH=10.0). ED-50s of compounds (and 95% confidence limits) were calculated in cases where the data permitted the calculation."}, "[3]": {"conditions": "50 mg/kg i.v., day 1, <2 min, 10 rats per group"}, "[4]": {"conditions": "highest dose (200 mg/kg i.v.), day 1"}, "[5]": {"conditions": "highest dose (200 mg/kg i.v.), days 5 and 9"}}, "note": "Read-outs that look alike come from different tables or passages of the source.", "data": [{"smiles": "COc1cc(C=O)ccc1O", "note": "[vanillin, 4-hydroxy-3-methoxybenzaldehyde]", "values": [{"measurement": "Ambulation Absent (number of rats)", "setting": "[1]; 50 mg/kg i.v., day 1, 10 min", "value": 0}, {"measurement": "Sign of depression: Score > 0 (number of rats)", "setting": "[1]; 50 mg/kg i.v., day 1, 10 min, 10 rats per group", "value": 0}, {"measurement": "Grip Absent (number of rats)", "setting": "[1]; 50 mg/kg i.v., day 1, 10 min", "value": 0}, {"measurement": "Grip Weak (number of rats)", "setting": "[1]; 50 mg/kg i.v., day 1, 10 min", "value": 0}, {"measurement": "Ambulation Absent (number of rats)", "setting": "[1]; 50 mg/kg i.v., day 1, 20 min", "value": 0}, {"measurement": "Sign of depression: Score > 0 (number of rats)", "setting": "[1]; 50 mg/kg i.v., day 1, 20 min, 10 rats per group", "value": 0}, {"measurement": "Grip Absent (number of rats)", "setting": "[1]; 50 mg/kg i.v., day 1, 20 min", "value": 0}, {"measurement": "Grip Weak (number of rats)", "setting": "[1]; 50 mg/kg i.v., day 1, 20 min", "value": 0}, {"measurement": "Ambulation Absent (number of rats)", "setting": "[1]; 50 mg/kg i.v., day 1, 30 min", "value": 0}, {"measurement": "Sign of depression: Score > 0 (number of rats)", "setting": "[1]; 50 mg/kg i.v., day 1, 30 min, 10 rats per group", "value": 0}, {"measurement": "Grip Absent (number of rats)", "setting": "[1]; 50 mg/kg i.v., day 1, 30 min", "value": 0}, {"measurement": "Grip Weak (number of rats)", "setting": "[1]; 50 mg/kg i.v., day 1, 30 min", "value": 0}, {"measurement": "Ambulation Absent (number of rats)", "setting": "[1]; 50 mg/kg i.v., day 1, 45 min", "value": 0}, {"measurement": "Sign of depression: Score > 0 (number of rats)", "setting": "[1]; 50 mg/kg i.v., day 1, 45 min, 10 rats per group", "value": 0}, {"measurement": "Grip Absent (number of rats)", "setting": "[1]; 50 mg/kg i.v., day 1, 45 min", "value": 0}, {"measurement": "Grip Weak (number of rats)", "setting": "[1]; 50 mg/kg i.v., day 1, 45 min", "value": 0}, {"measurement": "Ambulation Absent (number of rats)", "setting": "[1]; [3]", "value": 0}, {"measurement": "Grip Absent (number of rats)", "setting": "[1]; [3]", "value": 0}, {"measurement": "Grip Weak (number of rats)", "setting": "[1]; [3]", "value": 1}, {"measurement": "Sign of depression: Score > 0 (number of rats)", "setting": "[1]; 50 mg/kg i.v., day 1, <2 min after treatment, 10 rats per group", "value": 0}, {"measurement": "Ambulation Absent (number of rats)", "setting": "[1]; 100 mg/kg i.v., day 1, 10 min", "value": 0}, {"measurement": "Sign of depression: Score > 0 (number of rats)", "setting": "[1]; 100 mg/kg i.v., day 1, 10 min, 10 rats per group", "value": 0}, {"measurement": "Grip Absent (number of rats)", "setting": "[1]; 100 mg/kg i.v., day 1, 10 min", "value": 0}, {"measurement": "Grip Weak (number of rats)", "setting": "[1]; 100 mg/kg i.v., day 1, 10 min", "value": 2}, {"measurement": "Ambulation Absent (number of rats)", "setting": "[1]; 100 mg/kg i.v., day 1, 20 min", "value": 0}, {"measurement": "Sign of depression: Score > 0 (number of rats)", "setting": "[1]; 100 mg/kg i.v., day 1, 20 min, 10 rats per group", "value": 0}, {"measurement": "Grip Absent (number of rats)", "setting": "[1]; 100 mg/kg i.v., day 1, 20 min", "value": 0}, {"measurement": "Grip Weak (number of rats)", "setting": "[1]; 100 mg/kg i.v., day 1, 20 min", "value": 0}, {"measurement": "Ambulation Absent (number of rats)", "setting": "[1]; 100 mg/kg i.v., day 1, 30 min", "value": 0}, {"measurement": "Sign of depression: Score > 0 (number of rats)", "setting": "[1]; 100 mg/kg i.v., day 1, 30 min, 10 rats per group", "value": 0}, {"measurement": "Grip Absent (number of rats)", "setting": "[1]; 100 mg/kg i.v., day 1, 30 min", "value": 0}, {"measurement": "Grip Weak (number of rats)", "setting": "[1]; 100 mg/kg i.v., day 1, 30 min", "value": 0}, {"measurement": "Ambulation Absent (number of rats)", "setting": "[1]; 100 mg/kg i.v., day 1, 45 min", "value": 0}, {"measurement": "Sign of depression: Score > 0 (number of rats)", "setting": "[1]; 100 mg/kg i.v., day 1, 45 min, 10 rats per group", "value": 0}, {"measurement": "Grip Absent (number of rats)", "setting": "[1]; 100 mg/kg i.v., day 1, 45 min", "value": 0}, {"measurement": "Grip Weak (number of rats)", "setting": "[1]; 100 mg/kg i.v., day 1, 45 min", "value": 0}, {"measurement": "Ambulation Absent (number of rats)", "setting": "[1]; 100 mg/kg i.v., day 1, <2 min", "value": 0}, {"measurement": "Grip Absent (number of rats)", "setting": "[1]; 100 mg/kg i.v., day 1, <2 min", "value": 0}, {"measurement": "Grip Weak (number of rats)", "setting": "[1]; 100 mg/kg i.v., day 1, <2 min", "value": 6}, {"measurement": "Sign of depression: Score > 0 (number of rats)", "setting": "[1]; 100 mg/kg i.v., day 1, <2 min after treatment, 10 rats per group", "value": 0}, {"measurement": "Ambulation Absent (number of rats)", "setting": "[1]; 200 mg/kg i.v., day 1, 10 min", "value": 0}, {"measurement": "Sign of depression: Score > 0 (number of rats)", "setting": "[1]; 200 mg/kg i.v., day 1, 10 min, 10 rats per group", "value": 0}, {"measurement": "Grip Absent (number of rats)", "setting": "[1]; 200 mg/kg i.v., day 1, 10 min", "value": 0}, {"measurement": "Grip Weak (number of rats)", "setting": "[1]; 200 mg/kg i.v., day 1, 10 min", "value": 8}, {"measurement": "Ambulation Absent (number of rats)", "setting": "[1]; 200 mg/kg i.v., day 1, 20 min", "value": 0}, {"measurement": "Sign of depression: Score > 0 (number of rats)", "setting": "[1]; 200 mg/kg i.v., day 1, 20 min, 10 rats per group", "value": 0}, {"measurement": "Grip Absent (number of rats)", "setting": "[1]; 200 mg/kg i.v., day 1, 20 min", "value": 0}, {"measurement": "Grip Weak (number of rats)", "setting": "[1]; 200 mg/kg i.v., day 1, 20 min", "value": 8}, {"measurement": "Ambulation Absent (number of rats)", "setting": "[1]; 200 mg/kg i.v., day 1, 30 min", "value": 0}, {"measurement": "Sign of depression: Score > 0 (number of rats)", "setting": "[1]; 200 mg/kg i.v., day 1, 30 min, 10 rats per group", "value": 0}, {"measurement": "Grip Absent (number of rats)", "setting": "[1]; 200 mg/kg i.v., day 1, 30 min", "value": 0}, {"measurement": "Grip Weak (number of rats)", "setting": "[1]; 200 mg/kg i.v., day 1, 30 min", "value": 5}, {"measurement": "Ambulation Absent (number of rats)", "setting": "[1]; 200 mg/kg i.v., day 1, 45 min", "value": 0}, {"measurement": "Sign of depression: Score > 0 (number of rats)", "setting": "[1]; 200 mg/kg i.v., day 1, 45 min, 10 rats per group", "value": 0}, {"measurement": "Grip Absent (number of rats)", "setting": "[1]; 200 mg/kg i.v., day 1, 45 min", "value": 0}, {"measurement": "Grip Weak (number of rats)", "setting": "[1]; 200 mg/kg i.v., day 1, 45 min", "value": 2}, {"measurement": "Ambulation Absent (number of rats)", "setting": "[1]; 200 mg/kg i.v., day 1, <2 min", "value": 5}, {"measurement": "Grip Absent (number of rats)", "setting": "[1]; 200 mg/kg i.v., day 1, <2 min", "value": 10}, {"measurement": "Grip Weak (number of rats)", "setting": "[1]; 200 mg/kg i.v., day 1, <2 min", "value": 10}, {"measurement": "Sign of depression: Score > 0 (number of rats)", "setting": "[1]; 200 mg/kg i.v., day 1, <2 min after treatment, 10 rats per group", "value": 3}, {"measurement": "rats rated with depression scores above zero", "setting": "[1]; days 5 and 9", "value": "no rats"}, {"measurement": "time for diminished grip to return to normal", "setting": "[1]; days 5 and 9, almost all rats with diminished grip", "value": "≤ 20", "unit": "min"}, {"measurement": "tolerance to depressant effects", "setting": "[1]; days 5 and 9, i.v.", "value": "some suggestion of tolerance"}, {"measurement": "effect on grip strength", "setting": "[1]; [4]", "value": "obliterated"}, {"measurement": "persistence of slight effect on grip strength", "setting": "[1]; [4]", "value": "≥ 45", "unit": "min"}, {"measurement": "rats displaying absence of grip", "setting": "[1]; [5]", "value": "4 of 10"}, {"measurement": "rats exhibiting no muscular or motor impairment at all", "setting": "[1]; [5]", "value": 1}, {"measurement": "time for return of ability to walk", "setting": "[1]; i.v., highest dose 200 mg/kg, day 1, some of the rats", "value": "less than 10 minutes"}, {"measurement": "persistence of eye closure", "setting": "[1]; intermediate and high dose groups i.v., several rats", "value": "up to 45 minutes"}, {"measurement": "time to appearance of eye closure", "setting": "[1]; intermediate and high dose groups i.v., several rats, typically", "value": "≤ 10", "unit": "min"}, {"measurement": "effect on grip strength", "setting": "[1]; intermediate dose (100 mg/kg i.v.), day 1", "value": "weakened in most rats"}, {"measurement": "effects on righting reflex and on motor coordination", "setting": "[1]; vanillin given alone, rats", "value": "mild and transient"}, {"measurement": "ED50", "setting": "[2]; 2 min, 2 min post-treatment, read-out: ED-50 (95% confidence limits)", "value": 112, "unit": "mg/kg"}, {"measurement": "ED50", "setting": "[2]; 5 min, 5 min post-treatment, read-out: ED-50 (95% confidence limits)", "value": 104, "unit": "mg/kg"}, {"measurement": "ED50", "setting": "[2]; 10 min, 10 min post-treatment, read-out: ED-50 (95% confidence limits)", "value": 112, "unit": "mg/kg"}, {"measurement": "ED50", "setting": "[2]; 10 min, first 10 minutes after injection, read-out: ED-50", "value": "~100", "unit": "mg/kg"}, {"measurement": "ED50", "setting": "[2]; 0.5 h, 30 min post-treatment, read-out: ED-50 (95% confidence limits)", "value": 748, "unit": "mg/kg"}, {"measurement": "change of potency with time", "setting": "[2]; between 10 and 30 minutes after injection", "value": "declined precipitously"}]}]}
